From US20250073244A1, “CRYSTALLINE FORMS OF PENTAAZA MACROCYCLIC RING COMPLEX” (Galera Labs, LLC, priority 2023, published 2025)

Experiment: Equilibration with solvents at 50° C. for 1 week
Protocol: About 50 mg of drug substance was equilibrated in minimal amount of solvent at 50° C. for 1 week with a stirring plate (Table 32). Obtained suspension was filtered. The solid part (wet cake) was investigated by XRPD. When differences were observed, additional investigations were performed (e.g. DSC, TGA. FT-IR, PLM/SEM, etc.).

SMILES: CCC(=O)[O][Mn][O]C(=O)CC.c1cc2nc(c1)CN[C@H]1CCCC[C@@H]1NCCN[C@H]1CCCC[C@@H]1NC2 [API]
- Comments (Heptane): API degradation
- purity (Heptane): 94.65%
- Comments (Heptane/Acetone, 80/20): API degradation
- purity (Heptane/Acetone, 80/20): 95.63%
- Comments (Heptane/EtOAc, 80/20): API degradation
- purity (Heptane/EtOAc, 80/20): 85.84%
- Comments (Heptane/EtOH, 80/20): API was soluble in the solvent
- Comments (Heptane/IPA, 80/20): API was soluble in the solvent
- Comments (MTBE): API degradation
- purity (MTBE): 92.26%
- Comments (MTBE/Acetone, 80/20): API degradation
- purity (MTBE/Acetone, 80/20): 93.80%
- Comments (MTBE/EtOAc, 80/20): API degradation
- purity (MTBE/EtOAc, 80/20): 87.67%
- Comments (MTBE/EtOH, 80/20): API was soluble in the solvent
- Comments (MTBE/IPA, 80/20): API was soluble in the solvent
